Results reported in US20190365776A1, “THERAPEUTIC AGENT FOR OCULAR FUNDUS DISEASE” (KYUSHU UNIVERSITY, NATIONAL UNIVERSITY CORPORATION, priority 2013, published 2019).

Assays:
[1] = tested on: mice OIR (Oxygen-Induced Retinopathy) model; experiment: Mice OIR (oxygen-induced retinopathy) model, flat-mounted retina; type: in vivo, C57BL/6JJcl mice; conditions: 0.4% solution, ocular instillation 20 μL three times a day, day 12 to day 17 after birth, flat mount
Protocol: The effectiveness of (S)-(−)-1-(4-fluoro-5-isoquinolinesulfonyl)-2-methyl-1,4-homopiperazine (compound 1) in a mice OIR model commonly used as a model of ischemic retinopathy such as diabetic retinopathy was examined in the following manner. Compound 1 solutions: 0.4% solution, 0.8% solution (instillation volume: 20 μL) Fasudil solution: 0.4% solution (instillation volume: 20 μL) Test animals: C57BL/6JJcl mice (sex: male, 8 to 14 mice per group) C57BL/6JJcl mice born on the same day were reared in a 75%-oxygen environment from day 7 after birth, and were then transferred to a normal indoor environment on day 12 after birth to start administration by ocular instillation. Test groups were a saline instillation group (control), a 0.4% compound 1 solution instillation group, a 0.8% compound 1 solution instillation group, and a 0.4% fasudil solution instillation group, and saline, the compound 1 solution, or the fasudil solution was administered by ocular instillation three times a day. On day 17 after birth, ischemic retinal areas (non-perfused areas) and neovascular areas were quantified for evaluation by flat-mounting or fluorescein fundus angiography. More specifically, 1 g/kg of pentobarbital (Nembutal) was administered intraperitoneally for euthanasia under deep anesthesia, and then both eyeballs were excised and fixed with 4% paraformaldehyde (PFA) at 37° C. for 1 hour, and the corneal limbus was circumferentially incised to remove the cornea and iris from the eyeball. Then, after fixation with 4% PFA at 37° C. for 1 hour, the lens, sclera, and choroid were removed, and the eye cup including the retina was isolated. Further, the retina was fixed with 4% PFA at 37° C. for 3 hours, washed with PBS three times (15 min per wash, 37° C.), dehydrated (methanol 50% 100%, 10 min per methanol treatment, 37° C.), washed with PBS three times (15 min per wash, 37° C.), and blocked with Blocking Buffer (1% BSA, 0.5% Triton-X in PBS) for 60 minutes (37° C.). Then, the retina was treated with a primary antibody (0.7% FITC-conjugates Anti-lectin Ab in PBS, 4° C., overnight) and washed with PBS three times (15 min per wash, 37° C.). Then, 4 to 6 cuts were radially made in the eye cup, and the flat-mounted retina was covered with Crystal Mount. Then, the image of the flat-mounted retina was taken with a fluorescence microscope (BZ-9000, KEYENCE Corp, Osaka, Japan), and the proportion of the non-perfused area to the entire retina and the proportion of the neovascular area to the entire retina were calculated by the following formulas in NIH image J software. The thus obtained values were converted to relative values by regarding the obtained values of the saline instillation group (control) as 100%, and statistical analysis was performed by Wilcoxon test. Non-perfused area=area of avascular region/area of entire retina Neovascular area=area of neovascular region/area of entire retina

[2] = tested on: VEGF-induced neovascularization; conditions: Non-Patent Documents 2 and 3; cited from earlier work
diabetic model rats = conditions: intravitreally administered; Non-Patent Documents 4 and 5; cited from earlier work
[3] = tested on: model mice with hyperoxia-induced retinopathy; conditions: intravitreally administered; Non-Patent Document 6; cited from earlier work

Compound	relative value of the neovascular area (saline instillation group = 100%) [1] [%]	relative value of the non-perfused area (saline instillation group = 100%) [1] [%]	effect on VEGF-induced neovascularization [2]	effect on endothelial cells in diabetic model rats (diabetic model rats)	effect on retinal neovascularization [3]
O=S(=O)(c1cccc2cnccc12)N1CCCNCC1 [fasudil, reference compound]	102.2	107.7	effect of inhibiting VEGF-induced neovascularization	effect of protecting endothelial cells	
C[C@@H](N)[C@H]1CC[C@H](C(=O)Nc2ccncc2)CC1 [Y-27632]			effect of inhibiting VEGF-induced neovascularization		effect of suppressing retinal neovascularization
